Common to all, as to type: in vivo, healthy adult subjects
A short description of data set [1]: Phase 1 single ascending dose study: plasma pharmacokinetics of syn-ACTH. On the procedure: (§1) Subjects who met all of the inclusion criteria and none of the exclusion criteria were enrolled in the study. Safety and tolerability were evaluated throughout the study, including all adverse events (AEs); physical examination findings; vital sign measurements; 12-lead electrocardiogram (ECG) findings; standard clinical laboratory measurements (eg, serum chemistry, hematology, and urinalysis); and injection site evaluations. Immunogenicity, as measured by antidrug antibodies (ADA) were evaluated. PD effects were assessed based on levels of cortisol and an adrenal panel of intermediates (dehydroepiandrosterone [DHA], 17-hydroxypregnenolone, and 17 hydroxyprogesterone). Blood samples for measurement of syn-ACTH concentrations were also collected (AMZ002 cohorts only).
Blood samples were collected prior to dosing on Day 1; at 5, 15, 30, and 45 minutes postdose; and at 1, 1.5, 2, 2.5, 3, 4, 5, 6, 8, 10, 12, 24, 30, 36, and 48 hours postdose.
The following plasma PK (pharmacokinetics) parameters of syn-ACTH were calculated from individual syn-ACTH concentration data for each cohort: • Maximum plasma concentration (Cmax) if the maximum value occurred at more than 1 time point, Cmax was defined as the first value; • Time to Cmax (Tmax); • Terminal elimination constant rate (λz); • Terminal elimination half-life (t1/2), calculated as ln(2)/λz; • AUC from time 0 to the last quantifiable plasma concentration (Clast) (AUClast); • AUC from time 0 to infinity (AUCinf);
Proportion of AUCinf due to extrapolation (%)(AUCextr), calculated as 100×(Clast/λz)/AUCinf; • Apparent clearance (CL/F); calculated as Dose/AUCinf; and • Apparent volume of distribution (Vz/F), calculated as Dose/[λz×AUCinf].

Data set [2] in a line: Phase 1 single ascending dose study: immunogenicity (antidrug antibodies). The settings on record: single IM dose; consistent with that observed for H.P. Acthar Gel. Here is the method:
as §1
Blood samples for evaluation of immunogenicity as measured by ADA were obtained at the Treatment Visit (Day 1) (predose), prior to discharge (Day 3), the Follow-Up Visit (Day 8 [+2 days])/Early Termination Visit, and subsequent visits for collection of ADA (Day 15 [+2 days] and Day 29 [+2 days]).

Data set [3] is described as follows: Phase 1 single ascending dose study: safety and tolerability. The settings on record: for safety and tolerability: single IM doses 0.15 mg to 0.75 mg. On the procedure: as §1
Safety parameters included all AEs; physical examination findings; vital sign measurements; 12-lead ECG findings; standard clinical laboratory measurements (eg, serum chemistry, hematology, and urinalysis); and injection site evaluations.

Data set [4] deals with cortisol and an adrenal panel of intermediates (DHA, 17-hydroxypregnenolone, 17-hydroxyprogesterone). Put plainly: Phase 1 single ascending dose study: pharmacodynamics (plasma cortisol and adrenal panel of intermediates). Here is the method: This was a Phase 1, single-blind, active-controlled, single ascending dose study to compare the PD effects of the investigational drug AMZ002 with those of H.P. Acthar Gel and Cortrosyn in healthy adult subjects. AMZ002 is a sterile solution for IM injection, formulated to contain 0.5 mg/mL ACTH having the sequence […] Phe, 50 mg/mL dextrose, 10 mg/mL sodium carboxymethylcellulose, and 5 mg/mL phenol (pH 6.4). The concentration of 0.5 mg/mL was chosen to reduce possible errors resulting from the preparation of small dose volumes (e.g., less than 0.4 ml).
The study consisted of 8 cohorts, with 8 subjects per cohort (each a single dose): Cortrosyn 0.25 mg; H.P. Acthar Gel 25 U; or, in an ascending dose fashion, AMZ002 0.15, 0.20, 0.25, 0.30, 0.50, or 0.75 mg. The investigational product (AMZ002) and active comparators (Cortrosyn and H.P. Acthar Gel) were administered via intramuscular (IM) injection to the upper arm. The dose of Cortrosyn (0.25 mg by IM administration), the active control, was intended to produce maximal adrenal stimulation. This is the standard dose for adults and children ≥2 years of age recommended in the 2015 Endocrine Society Clinical Practice Guidelines for diagnostic testing of adrenal insufficiency (same dose whether Cortrosyn is administered intravenously or IM). […] Since 25 U of natural ACTH was expected to elicit […] adrenal response, it was considered the most sensitive dose to determine a pharmacodynamically equivalent dose of AMZ002 in this study. Therefore, this study included a cohort of subjects who received a single dose of 25 U H.P. Acthar Gel (representing the target PD for the investigational drug product in this study).
On Day-1, a single standard dose of dexamethasone (1 mg) was administered orally at approximately midnight (8 hours prior to study drug administration the following day) to suppress endogenous adrenocorticotropic hormone (ACTH) production and remove this as a confounding variable in the measurements. […]
For each PD (pharmacodynamics) analyte (plasma cortisol and an adrenal panel of intermediates [DHA, 17-hydroxypregnenolone, and 17-hydroxyprogesterone]), the following parameters were calculated with the actual time points using a noncompartmental method as appropriate: • Maximum observed PD measurement (Emax); • Time to reach maximum observed PD measurement (TEmax); and • Area under the PD effect-time curve from time 0 to the last quantifiable PD measurement (AUEC0−t).
The PD parameters using baseline-corrected PD measurements were calculated similarly, if applicable. […] The following parameters were also calculated using baseline-corrected PD measurements: • Area under the PD effect-time curve that was above baseline (AUECabove B); and • Total time that response was≥baseline (Timeabove B). […]

Bounds are passed on as bounds.

For the substance “H-SYSMEHFRWGKPVGKKRRPVKVYPNGAEDELAEAFPLEF-OH [AMZ002]”, the half-life in data set [1] (human, plasma, single IM dose, range across dose cohorts, read-out: mean t½) was in the range of 0.911 to 2.59 h. Also, the Tmax (in general, the time at which the peak concentration occurs) in data set [1] (human, plasma, single IM dose, range across dose cohorts, read-out: median Tmax) is 0.08 to 2 h. For the same substance, in data set [1] (single IM dose), the absorption result is “rapidly absorbed” and the “time to mean peak plasma concentrations after dosing” value was not above 2 h. Besides, the “increase of exposure with increase in dose” value in data set [1] (single IM dose 0.15 to 0.75 mg) was “greater than proportional”. For the same substance, in data set [2], the “incidence of antibody formation (minimum of 1 positive postdose result)” value was “low”. In data set [3] (single IM doses), the “deaths, treatment-emergent SAEs, withdrawals due to a TEAE” value is “no deaths, treatment-emergent serious adverse events (SAEs), or withdrawals due to a treatment emergent adverse event (TEAE)” and the “severity of TEAEs” value is recorded as “mild or moderate”. For the same substance, the safety and tolerability result in data set [3] was “safe and well tolerated”. The safety and tolerability result in data set [3] (listed as ACTH having SEQ ID NO:1) is “generally safe and well tolerated”. The “cortisol response compared to 25 U H.P. Acthar Gel, highest levels” value in data set [4] (highest dose levels within 0.15 to 0.75 mg, single IM dose, FIG. 1) is “slightly greater and more sustained effects”. Moreover, the “cortisol response compared to 25 U H.P. Acthar Gel, lowest levels” value in data set [4] (lowest dose levels within 0.15 to 0.75 mg, single IM dose, FIG. 1) is reported as “maximal effect that is less sustained”. Moreover, in data set [4] (single IM dose 0.15 to 0.75 mg, FIG. 2), the “DHA response, lower levels compared to higher levels” value is “maximal effect that is less sustained”. For the same substance, in data set [4] (single IM dose 0.15 to 0.75 mg, FIG. 3), the “17-hydroxypregnenolone response, lower levels compared to higher levels” value is on record as “maximal effect that is less sustained”.

The record behind these values is patent US20240033328A1, “ACTH IN THE TREATMENT OF AN ADRENOCORTICOTROPIC HORMONE RESPONSIVE PEDIATRIC DISORDER” (Amzell B.V., priority 2020, published 2024).
